Measured values from the supplement of paper PMC4862054.

Assays:
Assay in all cases: normalised viability (% of control), CellTiter-Blue; higher = more viable cells (about 100 = DMSO control)
Conditions in all cases: incubation time: 72 h
MDA-MB-453 [1] = test system: MDA-MB-453
Method in brief: (§1)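 Compound dissolved in 5 µl medium was pre-loaded into 384-well plates, and breast cancer cell lines in 20 µl suspension were seeded on top and incubated 72 h. After adding 2.5 µl CellTiter-Blue reagent for 2 h at 37 °C, fluorescence was read at 560/590 nm. Plates were normalised to vehicle (100) and a positive kill control (0), with Z'-factor quality control. Each value is normalised viability at a single listed concentration from the series.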

CAL-148 [2] = test system: CAL-148
Method in brief: as §1

DU-4475 [3] = test system: DU-4475
Method in brief: as §1

CAL-85-1 [4] = test system: CAL-85-1
Method in brief: as §1

MDA-MB-453 [5] = test system: MDA-MB-453; remark: listed apart in the source
Method: (§2)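 DSRT, CellTiter-Blue viability, 72 h incubation. Signal is normalised to DMSO and benzethonium chloride controls. Value is the normalised response at dose 9.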

HDQ-P1 = test system: HDQ-P1
Method: as §2

CAL-148 [6] = test system: CAL-148; remark: listed apart in the source
Method: as §2

DU-4475 [7] = test system: DU-4475; remark: listed apart in the source
Method: as §2

CAL-85-1 [8] = test system: CAL-85-1; remark: listed apart in the source
Method: as §2

CAL-51 [9] = test system: CAL-51
Method: as §2

HCC1599 = test system: HCC1599
Method in brief: as §1

MDA-MB-231 = test system: MDA-MB-231
Method in brief: as §1

BT-549 = test system: BT-549
Method in brief: as §1

MDA-MB-453 [10] = test system: MDA-MB-453; remark: listed apart in the source
Method in brief: as §1

MDA-MB-468 = test system: MDA-MB-468
Method in brief: as §1

HCC1937 = test system: HCC1937
Method in brief: as §1

DU-4475 [11] = test system: DU-4475; remark: listed apart in the source
Method in brief: as §1

MFM-223 = test system: MFM-223
Method in brief: as §1

CAL-85-1 [12] = test system: CAL-85-1; remark: listed apart in the source
Method in brief: as §1

CAL-120 = test system: CAL-120
Method in brief: as §1

SK-BR-3 = test system: SK-BR-3
Method in brief: as §1

Hs578T = test system: Hs578T
Method in brief: as §1

BT-474 = test system: BT-474
Method in brief: as §1

CAL-51 [13] = test system: CAL-51; remark: listed apart in the source
Method in brief: as §1

MDA-MB-436 = test system: MDA-MB-436
Method in brief: as §1

HCC1143 = test system: HCC1143
Method in brief: as §1

Cc1cnc(NC(=O)Nc2cc(Br)c(C)cc2OC[C@@H]2CNCCO2)cn1
Conditions	normalised viability [%]
BT-474, 1 nM	102
BT-474, 100 nM	107
BT-474, 1000 nM	107
BT-549, 1 nM	90.9
BT-549, 100 nM	96
BT-549, 1000 nM	92
CAL-51 [9], 1000 nM	89.3
CAL-51 [13], 0.3 nM	97.8
CAL-51 [13], 3 nM	85.7
CAL-51 [13], 10 nM	93.1
CAL-85-1 [4], 300 nM	88.1
CAL-85-1 [8], 1000 nM	68.3
CAL-85-1 [12], 0.3 nM	90.6
CAL-85-1 [12], 3 nM	89.4
CAL-85-1 [12], 10 nM	106
CAL-120, 1 nM	88.5
CAL-120, 100 nM	96.4
CAL-120, 1000 nM	90.1
CAL-148 [2], 300 nM	107
CAL-148 [6], 1000 nM	56.7
DU-4475 [3], 300 nM	102
DU-4475 [7], 1000 nM	72
DU-4475 [11], 0.3 nM	116
DU-4475 [11], 3 nM	94.6
DU-4475 [11], 10 nM	106
HCC1143, 1 nM	97.9
HCC1143, 100 nM	90
HCC1143, 1000 nM	79.3
HCC1599, 1 nM	112
HCC1599, 100 nM	95.7
HCC1599, 1000 nM	65.7
HCC1937, 1 nM	108
HCC1937, 100 nM	80.7
HCC1937, 1000 nM	50.6
HDQ-P1, 1000 nM	106
Hs578T, 1 nM	92.6
Hs578T, 100 nM	102
Hs578T, 1000 nM	35
MDA-MB-231, 1 nM	106
MDA-MB-231, 100 nM	103
MDA-MB-231, 1000 nM	94
MDA-MB-436, 1 nM	104
MDA-MB-436, 100 nM	83.4
MDA-MB-436, 1000 nM	67.8
MDA-MB-453 [1], 300 nM	93.3
MDA-MB-453 [5], 1000 nM	65.2
MDA-MB-453 [10], 0.3 nM	109
MDA-MB-453 [10], 3 nM	111
MDA-MB-453 [10], 10 nM	105
MDA-MB-468, 1 nM	106
MDA-MB-468, 100 nM	110
MDA-MB-468, 1000 nM	56.6
MFM-223, 1 nM	104
MFM-223, 100 nM	98.8
MFM-223, 1000 nM	79.5
SK-BR-3, 1 nM	98.9
SK-BR-3, 100 nM	101
SK-BR-3, 1000 nM	30.1

NCCCNCCSP(=O)(O)O [Amifostine]
Conditions	normalised viability [%]
BT-474, 10 nM	94.2
BT-474, 1000 nM	94.5
BT-474, 10000 nM	111
BT-549, 10 nM	81.4
BT-549, 1000 nM	96.6
BT-549, 10000 nM	93.3
CAL-51 [9], 10000 nM	108
CAL-51 [13], 3 nM	113
CAL-51 [13], 30 nM	106
CAL-51 [13], 100 nM	107
CAL-85-1 [4], 3000 nM	91.6
CAL-85-1 [8], 10000 nM	89.9
CAL-85-1 [12], 3 nM	97.5
CAL-85-1 [12], 30 nM	88
CAL-85-1 [12], 100 nM	87.2
CAL-120, 10 nM	71.9
CAL-120, 1000 nM	84.1
CAL-120, 10000 nM	82.1
CAL-148 [2], 3000 nM	95.1
CAL-148 [6], 10000 nM	95.2
DU-4475 [3], 3000 nM	110
DU-4475 [7], 10000 nM	90.6
DU-4475 [11], 3 nM	85.9
DU-4475 [11], 30 nM	93.9
DU-4475 [11], 100 nM	86.4
HCC1143, 10 nM	79.2
HCC1143, 1000 nM	84
HCC1143, 10000 nM	75.2
HCC1599, 10 nM	102
HCC1599, 1000 nM	72.4
HCC1599, 10000 nM	81.7
HCC1937, 10 nM	79.2
HCC1937, 1000 nM	95
HCC1937, 10000 nM	89.5
HDQ-P1, 10000 nM	100
Hs578T, 10 nM	101
Hs578T, 1000 nM	104
Hs578T, 10000 nM	95.6
MDA-MB-231, 10 nM	86.7
MDA-MB-231, 1000 nM	101
MDA-MB-231, 10000 nM	86.5
MDA-MB-436, 10 nM	135
MDA-MB-436, 1000 nM	91.8
MDA-MB-436, 10000 nM	86.2
MDA-MB-453 [1], 3000 nM	96.6
MDA-MB-453 [5], 10000 nM	86.4
MDA-MB-453 [10], 3 nM	102
MDA-MB-453 [10], 30 nM	81
MDA-MB-453 [10], 100 nM	86.7
MDA-MB-468, 10 nM	102
MDA-MB-468, 1000 nM	93
MDA-MB-468, 10000 nM	91.3
MFM-223, 10 nM	81.8
MFM-223, 1000 nM	82.1
MFM-223, 10000 nM	96.4
SK-BR-3, 10 nM	81.9
SK-BR-3, 1000 nM	92.6
SK-BR-3, 10000 nM	93.3

CC[C@@H]1C(=O)N(C)c2cnc(Nc3ccc(C(=O)NC4CCN(C)CC4)cc3OC)nc2N1C1CCCC1 [BI 2536]
Conditions	normalised viability [%]
BT-474, 1 nM	116
BT-474, 100 nM	89.1
BT-474, 1000 nM	100
BT-549, 1 nM	85.2
BT-549, 100 nM	38.6
BT-549, 1000 nM	44.2
CAL-51 [9], 1000 nM	8.2
CAL-51 [13], 0.3 nM	99.2
CAL-51 [13], 3 nM	90.5
CAL-51 [13], 10 nM	63.9
CAL-85-1 [4], 300 nM	61.8
CAL-85-1 [8], 1000 nM	61.6
CAL-85-1 [12], 0.3 nM	101
CAL-85-1 [12], 3 nM	79.7
CAL-85-1 [12], 10 nM	40.5
CAL-120, 1 nM	97.5
CAL-120, 100 nM	28.6
CAL-120, 1000 nM	30.6
CAL-148 [2], 300 nM	41.5
CAL-148 [6], 1000 nM	44.3
DU-4475 [3], 300 nM	32.9
DU-4475 [7], 1000 nM	44.9
DU-4475 [11], 0.3 nM	105
DU-4475 [11], 3 nM	86.5
DU-4475 [11], 10 nM	50.6
HCC1143, 1 nM	109
HCC1143, 100 nM	51.3
HCC1143, 1000 nM	52.4
HCC1599, 1 nM	78.7
HCC1599, 100 nM	81.5
HCC1599, 1000 nM	61.3
HCC1937, 1 nM	107
HCC1937, 100 nM	24
HCC1937, 1000 nM	28.3
HDQ-P1, 1000 nM	86.2
Hs578T, 1 nM	114
Hs578T, 100 nM	29.9
Hs578T, 1000 nM	65.3
MDA-MB-231, 1 nM	103
MDA-MB-231, 100 nM	41.8
MDA-MB-231, 1000 nM	41
MDA-MB-436, 1 nM	95.7
MDA-MB-436, 100 nM	65.3
MDA-MB-436, 1000 nM	78.5
MDA-MB-453 [1], 300 nM	39.5
MDA-MB-453 [5], 1000 nM	25.2
MDA-MB-453 [10], 0.3 nM	97.8
MDA-MB-453 [10], 3 nM	56.6
MDA-MB-453 [10], 10 nM	32.6
MDA-MB-468, 1 nM	107
MDA-MB-468, 100 nM	52.2
MDA-MB-468, 1000 nM	55.1
MFM-223, 1 nM	87.2
MFM-223, 100 nM	48.6
MFM-223, 1000 nM	48.5
SK-BR-3, 1 nM	99.7
SK-BR-3, 100 nM	18.4
SK-BR-3, 1000 nM	23.1

CC[C@H](Nc1ncnc2[nH]cnc12)c1nc2cccc(F)c2c(=O)n1-c1ccccc1 [CAL-101]
Conditions	normalised viability [%]
BT-474, 10 nM	108
BT-474, 1000 nM	109
BT-474, 10000 nM	90.9
BT-549, 10 nM	100
BT-549, 1000 nM	96.6
BT-549, 10000 nM	71.8
CAL-51 [9], 10000 nM	57.3
CAL-51 [13], 3 nM	93
CAL-51 [13], 30 nM	92
CAL-51 [13], 100 nM	98
CAL-85-1 [4], 3000 nM	76.8
CAL-85-1 [8], 10000 nM	47.5
CAL-85-1 [12], 3 nM	88.6
CAL-85-1 [12], 30 nM	75.9
CAL-85-1 [12], 100 nM	78
CAL-120, 10 nM	95.6
CAL-120, 1000 nM	89.6
CAL-120, 10000 nM	77.8
CAL-148 [2], 3000 nM	83.3
CAL-148 [6], 10000 nM	88.1
DU-4475 [3], 3000 nM	104
DU-4475 [7], 10000 nM	-0.99
DU-4475 [11], 3 nM	105
DU-4475 [11], 30 nM	83.2
DU-4475 [11], 100 nM	86.2
HCC1143, 10 nM	99.4
HCC1143, 1000 nM	96.1
HCC1143, 10000 nM	76.2
HCC1599, 10 nM	84.8
HCC1599, 1000 nM	77.9
HCC1599, 10000 nM	49.1
HCC1937, 10 nM	106
HCC1937, 1000 nM	94.5
HCC1937, 10000 nM	92.4
HDQ-P1, 10000 nM	61.3
Hs578T, 10 nM	116
Hs578T, 1000 nM	112
Hs578T, 10000 nM	86.8
MDA-MB-231, 10 nM	89.9
MDA-MB-231, 1000 nM	92.1
MDA-MB-231, 10000 nM	80.5
MDA-MB-436, 10 nM	111
MDA-MB-436, 1000 nM	107
MDA-MB-436, 10000 nM	95.7
MDA-MB-453 [1], 3000 nM	79.5
MDA-MB-453 [5], 10000 nM	67.4
MDA-MB-453 [10], 3 nM	97.5
MDA-MB-453 [10], 30 nM	91.7
MDA-MB-453 [10], 100 nM	89.8
MDA-MB-468, 10 nM	110
MDA-MB-468, 1000 nM	96
MDA-MB-468, 10000 nM	62.6
MFM-223, 10 nM	90.3
MFM-223, 1000 nM	89.9
MFM-223, 10000 nM	79.9
SK-BR-3, 10 nM	101
SK-BR-3, 1000 nM	94.7
SK-BR-3, 10000 nM	59.1
